Laboratory results published in ChEMBL document CHEMBL4433234, “3H-Imidazo[4,5-b]pyridine-6-carboxylic acid derivatives as rexinoids with reduced teratogenicity” (Bioorg Med Chem Lett, 2019).
Converted amounts (≈) assume the structure as drawn.

Key:
[1] = Toxicity in fertilized zebra fish embryos assessed as survival rate at 100 nM incubated for 120 hrs post fertilization by microscopic method relative to untreated control (reference value: 100%); parameters: species or system Danio rerio; conditions: zebrafish
[2] = Toxicity in fertilized zebra fish embryos assessed as survival rate at 300 nM incubated for 120 hrs post fertilization by microscopic method relative to untreated control (reference value: 100%); parameters: species or system Danio rerio; conditions: zebrafish
[3] = Toxicity in fertilized zebra fish embryos assessed as survival rate at 1000 nM incubated for 120 hrs post fertilization by microscopic method relative to untreated control (reference value: 100%); parameters: species or system Danio rerio; conditions: zebrafish
[4] = Aqueous solubility in pH 7.4 PBS buffer at 1 mM after 6 hrs by HPLC analysis; assay type: physicochemical
[5] = Toxicity in fertilized zebra fish embryos assessed as hatching rate at 100 nM incubated for 120 hrs post fertilization by microscopic method relative to untreated control (reference value: 100%); parameters: species or system Danio rerio; conditions: zebrafish, 0.1 µM
[6] = Toxicity in fertilized zebra fish embryos assessed as hatching rate at 287 nM incubated for 120 hrs post fertilization by microscopic method relative to untreated control (reference value: 100%); parameters: species or system Danio rerio; conditions: zebrafish, 0.287 µM
[7] = Toxicity in fertilized zebra fish embryos assessed as survival rate at 287 nM incubated for 120 hrs post fertilization by microscopic method relative to untreated control (reference value: 100%); parameters: species or system Danio rerio; conditions: zebrafish
[8] = Toxicity in fertilized zebra fish embryo assessed as teratogenic effect by measuring malformation of spine curvature and head enlargement at 100 nM after 120 hrs post fertilization by microscopic method relative to control; parameters: species or system Danio rerio; conditions: zebrafish, 0.1 µM
[9] = Toxicity in fertilized zebra fish embryos assessed as hatching rate at 300 nM incubated for 120 hrs post fertilization by microscopic method relative to untreated control (reference value: 100%); parameters: species or system Danio rerio; conditions: zebrafish, 0.3 µM
[10] = Toxicity in fertilized zebra fish embryos assessed as hatching rate at 1000 nM incubated for 120 hrs post fertilization by microscopic method relative to untreated control (reference value: 100%); parameters: species or system Danio rerio; conditions: zebrafish, 1 µM
[11] = Toxicity in fertilized zebra fish embryo assessed as teratogenic effect by measuring malformation of spine curvature and head enlargement at 300 nM after 120 hrs post fertilization by microscopic method relative to control; parameters: species or system Danio rerio; conditions: zebrafish, 0.3 µM
[12] = Toxicity in fertilized zebra fish embryo assessed as teratogenic effect by measuring malformation of spine curvature and head enlargement at 1000 nM after 120 hrs post fertilization by microscopic method relative to control; parameters: species or system Danio rerio; conditions: zebrafish, 1 µM
[13] = target: T1, Retinoic acid receptor RXR-alpha (Homo sapiens, UniProt P19793); assay: Agonist activity at human RXRalpha expressed in African green monkey COS1 cells harboring CRBP2-tk-luc reporter incubated for 18 hrs by steady-glo luciferase reporter gene assay; assay type: cell-based
T1 sequence (P19793 whole entry): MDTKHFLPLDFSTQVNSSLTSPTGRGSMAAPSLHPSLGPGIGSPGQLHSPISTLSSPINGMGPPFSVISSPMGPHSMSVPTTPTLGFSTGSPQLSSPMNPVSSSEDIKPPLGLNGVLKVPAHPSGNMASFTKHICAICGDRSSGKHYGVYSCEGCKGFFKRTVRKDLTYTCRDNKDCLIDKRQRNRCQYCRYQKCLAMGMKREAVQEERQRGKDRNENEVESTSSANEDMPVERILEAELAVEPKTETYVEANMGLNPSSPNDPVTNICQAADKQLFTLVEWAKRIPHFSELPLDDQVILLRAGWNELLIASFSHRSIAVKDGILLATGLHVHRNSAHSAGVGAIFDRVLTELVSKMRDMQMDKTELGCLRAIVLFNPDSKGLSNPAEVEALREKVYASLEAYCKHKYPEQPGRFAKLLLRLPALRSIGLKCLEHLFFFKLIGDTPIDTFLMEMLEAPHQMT

[14] = Toxicity in fertilized zebra fish embryo assessed as induction of malformation of spine curvature at 1000 nM after 120 hrs post fertilization by microscopic method relative to control; parameters: species or system Danio rerio; conditions: zebrafish, 1 µM

| Compound | survival at 120 h, 0.1 µM [1] [%] | survival at 120 h, 0.3 µM [2] [%] | survival at 120 h, 1 µM [3] [%] | solubility at 6 h, 1000 µM [4] [µM] | Activity [5] [%] | Activity [6] [%] | survival at 120 h, 0.287 µM [7] [%] | Activity [8] [%] | Activity [9] [%] | Activity [10] [%] | Activity [11] [%] | Activity [12] [%] | EC50 [13] [nM] | Activity [14] |
| --- | --- | --- | --- | --- | --- | --- | --- | --- | --- | --- | --- | --- | --- | --- |
| Cc1cc2c(cc1-n1nnc3cc(C(=O)O)ccc31)C(C)(C)CCC2(C)C | 100 | 100 | 100 | 305 (≈ 111 µg/mL) | – | – | – | – | – | – | – | – | – | – |
| C=C(c1ccc(C(=O)O)cc1)c1cc2c(cc1C)C(C)(C)CCC2(C)C [BEXAROTENE] | 100 | – | – | 0.25 (≈ 0.0871 µg/mL) | 67 to 100 | 99 | 99 | 100 | – | – | – | – | – | – |
| Cc1cc2c(cc1-n1c(C(F)(F)F)nc3cc(C(=O)O)cnc31)C(C)(C)CCC2(C)C | 100 | 100 | 100 | 222 (≈ 95.8 µg/mL) | 92 | – | – | 0 | 100 | 83 | 0 | 10 | 670 | Non-Toxic |
| Cc1cc2c(cc1-n1nnc3cc(C(=O)O)cnc31)C(C)(C)CCC2(C)C | 100 | 100 | 100 | 670 (≈ 244 µg/mL) | 100 | – | – | 0 | 100 | 100 | 0 | 25 | 275 | Toxic |
| Cc1cc2c(cc1-n1c(C(F)(F)F)nc3cc(C(=O)O)ccc31)C(C)(C)CCC2(C)C | 100 | 100 | 100 | 12.8 (≈ 5.51 µg/mL) | 83 | – | – | 0 | 92 | 100 | 0 | 17 | – | – |
